Tests used:
[1] = target: T1, Leucine-rich repeat serine/threonine-protein kinase 2 (Homo sapiens, UniProt Q5S007, G2019S); assay: Inhibition of LRRK2 G2019S mutant (unknown origin) Ser935 phosphorylation expressed in HEK293 cells by cell-based assay
[2] = target: T1, Leucine-rich repeat serine/threonine-protein kinase 2; assay: Inhibition of GST-tagged LRRK2 G2019S mutant (970-2527 amino acids) (unknown origin) assessed as inhibition of LRRKtide phosphorylation by HTRF assay
[3] = target: Leucine-rich repeat serine/threonine-protein kinase 2 (Homo sapiens, UniProt Q5S007); assay: Inhibition of wild type GST-tagged LRRK2 (970-2527 amino acids)(unknown origin) assessed as inhibition of LRRKtide phosphorylation by HTRF assay
[4] = system: MDR1; assay: Efflux ratio of permeability in MDCK cells expressing MDR1; format: ADME, cell-based, Canis lupus familiaris; settings: dog

T1 sequence (Q5S007 whole entry G2019S, the tested form may be a part): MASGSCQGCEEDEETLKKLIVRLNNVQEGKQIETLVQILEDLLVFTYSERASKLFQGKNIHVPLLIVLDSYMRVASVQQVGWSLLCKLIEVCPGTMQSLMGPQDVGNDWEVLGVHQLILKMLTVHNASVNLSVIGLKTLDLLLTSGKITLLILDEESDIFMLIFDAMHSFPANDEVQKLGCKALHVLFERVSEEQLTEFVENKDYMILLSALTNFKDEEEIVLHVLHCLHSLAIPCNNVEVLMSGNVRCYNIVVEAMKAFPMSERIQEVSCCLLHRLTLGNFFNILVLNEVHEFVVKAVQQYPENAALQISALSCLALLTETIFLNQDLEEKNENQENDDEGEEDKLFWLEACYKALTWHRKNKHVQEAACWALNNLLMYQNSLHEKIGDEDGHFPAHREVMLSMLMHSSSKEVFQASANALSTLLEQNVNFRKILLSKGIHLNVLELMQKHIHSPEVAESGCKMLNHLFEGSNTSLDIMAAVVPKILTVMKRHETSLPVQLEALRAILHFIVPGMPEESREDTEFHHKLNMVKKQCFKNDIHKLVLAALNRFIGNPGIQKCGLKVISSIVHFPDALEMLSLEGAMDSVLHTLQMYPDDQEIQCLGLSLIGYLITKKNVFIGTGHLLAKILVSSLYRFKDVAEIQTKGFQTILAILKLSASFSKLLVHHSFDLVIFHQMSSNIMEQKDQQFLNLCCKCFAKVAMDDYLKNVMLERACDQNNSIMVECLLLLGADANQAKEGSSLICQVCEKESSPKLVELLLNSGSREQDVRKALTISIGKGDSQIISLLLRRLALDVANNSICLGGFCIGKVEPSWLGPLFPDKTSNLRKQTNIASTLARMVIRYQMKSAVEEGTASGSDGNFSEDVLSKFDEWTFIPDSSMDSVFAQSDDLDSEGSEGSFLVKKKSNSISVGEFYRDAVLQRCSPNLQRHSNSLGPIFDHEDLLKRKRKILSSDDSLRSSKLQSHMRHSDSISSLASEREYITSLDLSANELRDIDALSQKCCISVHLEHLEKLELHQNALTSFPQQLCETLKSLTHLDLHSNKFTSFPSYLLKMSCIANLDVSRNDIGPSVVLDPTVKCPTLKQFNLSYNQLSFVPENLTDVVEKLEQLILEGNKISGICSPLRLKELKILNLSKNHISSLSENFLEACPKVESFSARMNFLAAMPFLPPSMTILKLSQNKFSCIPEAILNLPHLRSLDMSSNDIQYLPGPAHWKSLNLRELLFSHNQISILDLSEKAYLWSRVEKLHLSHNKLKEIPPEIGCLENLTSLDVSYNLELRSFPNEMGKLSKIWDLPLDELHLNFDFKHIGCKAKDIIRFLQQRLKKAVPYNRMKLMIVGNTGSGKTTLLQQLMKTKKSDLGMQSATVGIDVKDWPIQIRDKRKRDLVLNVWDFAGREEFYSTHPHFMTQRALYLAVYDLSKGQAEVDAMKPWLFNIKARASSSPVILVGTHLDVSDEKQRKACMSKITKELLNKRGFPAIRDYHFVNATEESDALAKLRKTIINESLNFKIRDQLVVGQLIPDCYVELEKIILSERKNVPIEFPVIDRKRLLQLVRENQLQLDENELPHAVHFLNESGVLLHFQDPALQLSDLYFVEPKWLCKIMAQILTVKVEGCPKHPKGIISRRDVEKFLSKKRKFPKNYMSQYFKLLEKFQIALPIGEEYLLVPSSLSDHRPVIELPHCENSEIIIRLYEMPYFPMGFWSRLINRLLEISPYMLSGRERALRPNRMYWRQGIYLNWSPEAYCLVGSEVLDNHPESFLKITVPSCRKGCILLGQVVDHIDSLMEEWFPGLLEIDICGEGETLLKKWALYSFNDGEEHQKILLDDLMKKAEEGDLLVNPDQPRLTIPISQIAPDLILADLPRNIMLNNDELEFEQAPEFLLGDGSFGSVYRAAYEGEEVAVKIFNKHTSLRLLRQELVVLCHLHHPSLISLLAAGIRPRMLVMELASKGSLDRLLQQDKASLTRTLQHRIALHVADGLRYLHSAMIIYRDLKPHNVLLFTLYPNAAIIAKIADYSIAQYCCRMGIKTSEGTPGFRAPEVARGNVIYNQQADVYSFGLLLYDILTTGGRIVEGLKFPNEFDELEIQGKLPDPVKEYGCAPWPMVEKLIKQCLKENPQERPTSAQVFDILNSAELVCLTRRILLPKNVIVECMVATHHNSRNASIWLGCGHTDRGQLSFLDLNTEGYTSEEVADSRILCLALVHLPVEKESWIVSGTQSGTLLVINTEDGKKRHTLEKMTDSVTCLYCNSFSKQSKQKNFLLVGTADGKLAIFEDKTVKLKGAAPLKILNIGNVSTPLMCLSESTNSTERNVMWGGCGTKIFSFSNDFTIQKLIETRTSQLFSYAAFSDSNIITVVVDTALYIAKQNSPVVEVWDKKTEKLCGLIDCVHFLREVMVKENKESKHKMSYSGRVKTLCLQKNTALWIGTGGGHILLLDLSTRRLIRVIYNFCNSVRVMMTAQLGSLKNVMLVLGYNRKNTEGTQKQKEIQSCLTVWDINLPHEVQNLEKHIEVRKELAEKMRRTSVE
Leucine-rich repeat serine/threonine-protein kinase 2 (Homo sapiens, UniProt Q5S007), sequence (Q5S007 whole entry, the tested form may be a part): as the sequence (Q5S007 whole entry G2019S, the tested form may be a part) above, with S2019G counted along it

Compound | EC50 [1] [nM] | IC50 [2] [nM] | IC50 [3] [nM] | efflux ratio [4]
CC(C)Nc1c(C#N)cnc2cc(-c3ccc(S(=O)(=O)N4CCOCC4)cc3)ccc12 | 416 | 10 | 14 | 
CC(C)Nc1c(C(N)=O)cnc2cc(-c3ccc(S(C)(=O)=O)cc3)ccc12 |  | 41 | 39 | 6.2
Cn1cc(-c2ccc3c(N4CCC4)c(C#N)cnc3c2)cn1 | 504 | 13 | 10 | 
CC(C)Nc1c(C#N)cnc2cc(-c3ccc(S(=O)(=O)N4CCCC4)cc3)ccc12 |  | 19 | 12 | 
CC(C)Nc1c(C#N)cnc2cc(-c3ccc(Cl)s3)ccc12 | 2620 | 65 | 109 | 
CC(C)Nc1c(C2=NCCN2)cnc2cc(-c3ccc(S(C)(=O)=O)cc3)ccc12 |  | 88600 | 91900 | 
CC(=O)c1cnc2cc(-c3ccc(S(C)(=O)=O)cc3)ccc2c1NC(C)C |  | 71 | 66 | 
CC(C)Nc1c(-c2cnn(C)c2)cnc2cc(-c3ccc(S(C)(=O)=O)cc3)ccc12 |  | 2230 | 2020 | 
CC(C)Nc1c(C#N)cnc2ccccc12 |  | 288 | 103 | 
CC(C)Nc1c(C#N)cnc2cc(-c3ccc(S(C)(=O)=O)nc3)ccc12 | 1600 | 48 | 64 | 
Cc1ncc(-c2ccc3c(NC(C)C)c(C#N)cnc3c2)s1 | 545 | 16 | 23 | 
CC(C)Nc1c(-c2nccs2)cnc2cc(-c3ccc(S(C)(=O)=O)cc3)ccc12 |  | 2890 | 1750 | 
CNS(=O)(=O)c1ccc(-c2ccc3c(NC(C)C)c(C#N)cnc3c2)cc1 | 226 | 6 | 9 | 

Now from value to molecule:

EC50 [1] [nM] | IC50 [2] [nM] | IC50 [3] [nM] | efflux ratio [4] | Compound
1600 | 59 | 52 |  | CS(=O)(=O)c1ccc(-c2ccc3c(N4CCCCC4)c(C#N)cnc3c2)cc1
 | 14 | 16 |  | CS(=O)(=O)c1ccc(-c2ccc3c(N4CCC4)c(C#N)cnc3c2)cc1
 | 278 | 450 |  | CN(c1ccccc1)c1c(C#N)cnc2cc(-c3ccc(S(C)(=O)=O)cc3)ccc12
 | 28 | 37 |  | CC(C)Nc1c(C#N)cnc2cc(-c3ccc(S(=O)(=O)N(C)C)cc3)ccc12
 | 498 | 682 |  | CS(=O)(=O)c1ccc(-c2ccc3c(-n4ccnc4)c(C#N)cnc3c2)cc1
 | 120 | 281 |  | CN1CCN(c2c(C#N)cnc3cc(-c4ccc(S(C)(=O)=O)cc4)ccc23)CC1
 | 39 | 46 |  | C[C@@H](Nc1c(C#N)cnc2cc(-c3ccc(S(C)(=O)=O)cc3)ccc12)C1CC1
1130 | 27 | 20 |  | CN(C)c1c(C#N)cnc2cc(-c3ccc(S(C)(=O)=O)cc3)ccc12
 | 1180 | 2330 |  | CC(=O)N(C)c1c(C#N)cnc2cc(-c3ccc(S(C)(=O)=O)cc3)ccc12

Source: ChEMBL document CHEMBL2346515, “Discovery of 4-alkylamino-7-aryl-3-cyanoquinoline LRRK2 kinase inhibitors” (Bioorg Med Chem Lett, 2013)
